The values that follow are results of earlier work, collected in patent publication US20240016816A1, “COMBINATION THERAPY” (priority 2017, published 2024).

One data set relates to eyelashes. The settings on record: patients using ophthalmic prostaglandins.
The subject of the next data set is hair loss. The settings on record: clinical trials.

In the case of `CCNC(=O)CCC/C=C\C[C@@H]1[C@@H](/C=C/[C@@H](O)CCc2ccccc2)[C@H](O)C[C@@H]1O` [Bimatoprost, bimatoprost], in the data set with eyelashes, the effect on eyelashes result is on record as “significantly increase eyelash length”.

Take `CC(C)(C)NC(=O)[C@H]1CC[C@H]2[C@@H]3CC[C@H]4NC(=O)C=C[C@]4(C)[C@H]3CC[C@]12C` [finasteride]: the “efficacy, monotherapy comparison minoxidil vs finasteride” value with hair loss is “the more efficacious treatment option”. On to `CC(C)OC(=O)CCC/C=C\C[C@@H]1[C@@H](CC[C@@H](O)CCc2ccccc2)[C@H](O)C[C@@H]1O` [latanoprost], for which, in the data set on eyelashes, the effect on eyelashes result was “increase in diameter, density and length of eyelashes”. As for `CC(C)OC(=O)CCC/C=C\C[C@@H]1[C@@H](/C=C/[C@@H](O)COc2cccc(C(F)(F)F)c2)[C@H](O)C[C@@H]1O` [travoprost], in the data set with eyelashes, the effect on eyelashes entry was “increase in diameter, density and length of eyelashes”.
